Data on 1 molecule can be found in article PMC7177946, “Effect of Ferulic Acid, a Phenolic Inducer of Fungal Laccase, on 26S Proteasome Activities In Vitro” (International Journal of Molecular Sciences, 2020).

The target in test [1] is T1, human 26S proteasome, trypsin-like (TL) site, β2 subunit (Homo sapiens, UniProt Q99436).
T1 construct: gene PSMB7; commercial purified 26S complex (BostonBiochem); beta subunits mature with N-terminal Thr; with Proteasome subunit beta type-5; Proteasome subunit beta type-6
T1 sequence (Q99436 44-277): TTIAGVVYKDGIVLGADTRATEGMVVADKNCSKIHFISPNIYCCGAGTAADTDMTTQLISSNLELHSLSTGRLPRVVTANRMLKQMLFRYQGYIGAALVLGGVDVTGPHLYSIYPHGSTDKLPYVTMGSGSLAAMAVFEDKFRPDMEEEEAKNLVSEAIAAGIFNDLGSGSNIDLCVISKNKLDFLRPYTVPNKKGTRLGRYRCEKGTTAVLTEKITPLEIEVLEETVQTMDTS
The test can be described thus: fluorogenic peptidase assay, Z-GGR-AMC. The test is classed as biochemical. The conditions noted are these: read-out: % inhibition at 1 mM.

Test [2] deals with T2, human 26S proteasome, chymotrypsin-like (CHTL) site, β5 subunit (Homo sapiens, UniProt P28074).
T2 construct: gene PSMB5; commercial purified 26S complex (BostonBiochem); beta subunits mature with N-terminal Thr; with Proteasome subunit beta type-7; Proteasome subunit beta type-6
T2 sequence (P28074 60-263): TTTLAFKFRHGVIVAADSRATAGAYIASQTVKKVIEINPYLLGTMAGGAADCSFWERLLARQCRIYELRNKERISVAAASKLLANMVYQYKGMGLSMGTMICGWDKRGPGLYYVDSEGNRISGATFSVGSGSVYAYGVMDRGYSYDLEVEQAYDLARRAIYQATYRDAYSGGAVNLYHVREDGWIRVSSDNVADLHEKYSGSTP
The experiment in a line: fluorogenic peptidase assay, Suc-LLVY-AMC. The conditions noted are these: read-out: % inhibition at 1 mM. Format: biochemical.

The structures appear in SMILES notation.

Regarding `COc1cc(/C=C/C(=O)O)ccc1O` [ferulic acid, 4-hydroxy-3-methoxycinnamic acid], the inhibition at 1000 µM in test [1] worked out at 30%; in test [2], 31%.

One may read the inhibition as how much of the control response was suppressed.
